Where two headings read alike, the source gives them in different places. Bridge positions count the residues as written; N and C are the ends. Square brackets hold non-standard residues; d marks the D form. Peptide text beside a SMILES is read from it. Dmt = Cc1cc(O)cc(C)c1C[C@H](N)C(=O)O
Columns and labels:
Male CD-1 mice = test: Hot-plate test after i.c.v. administration; type: in vivo; conditions: hot-plate test, mice, i.c.v.
Text: Male CD-1 mice (Harlan, Italy) weighing 25–30 g were used to determine the anti-nociceptive activity of the cyclopeptides in the hot-plate test after i.c.v. injection. Animal studies and research protocols were approved by the Service for Biotechnology and Animal Welfare of the Istituto Superiore di Sanità and authorized by the Italian Ministry of Health, according to Legislative Decree 26/14 (protocol number: 198/2013-B, 14 August 2013), which implemented the European Directive 2010/63/EEC on laboratory animal protection. Animal welfare was routinely checked by veterinarians from the Service for Biotechnology and Animal Welfare.
The hot-plate test was performed as described earlier. The intracerebroventricular (i.c.v.) injections were performed in a volume of 10 µl/animal, in the left brain ventricle of manually immobilized mice with a Hamilton microsyringe (50 µl) connected to a needle (diameter 0.5 mm). Peptides were also administrated in mice intravenously (i.v.) in a volume of 1 ml/kg. All compounds used for i.c.v. and i.v. administration were dissolved in saline. A transparent plastic cylinder (14 cm diameter, 31 cm height) was used to confine the mouse on the heated (55 ± 0.5 °C) surface of the plate. The animals were placed on the hot plate 5 min after the i.c.v. injection of saline (control) or peptides and the latencies to paw licking, rearing and jumping were measured at 5, 10, 20, 30, 45, 60, 90, and 120 min after administration of a peptide. A cut-off time of 240 s was used to avoid tissue injury. The percentage of the maximal possible effect (%MPE) was calculated as: %MPE = (t1 − t0)/(t2 − t0) × 100, where t0: control latency, t1: test latency, and t2: cut-off time. The median antinociceptive dose (ED50) was calculated according to the method of Litchfield and Wilcox[36].

[1] = Protocol: Parallel Artificial Membrane Permeability Assay (PAMPA) was performed using Multiscreen Filter Plate and Multiscreen Transport Receiver Plate (Merck Millipore, Warsaw, Poland). Tested, as well as reference compounds, were dissolved in 0.1 M PBS buffer containing 20% of ethanol, to the final concentration of 200 µM. A 300 µl aliquots of 0.1 M PBS solution (pH = 7.4) was dispensed into the wells of the […]. Then 1% n-dodecane solution of the brain polar lipid extract (Avanti Polar Lipids; Sigma Aldrich, Poznan, Poland) was prepared to investigate the blood–brain barrier (BBB) permeability. Aliquots of the obtained lipid solutions (5 µl) were dispensed on the membranes of wells of the donor plate and left to dry. […] A complete system, consisting of the receiver plate with inserted donor plate, was incubated at room temperature for 4 h, shaking at 40 g, to guarantee good solvent mixing.
The ability of the tested compounds to permeate the artificial membranes was classified according to the literature[33] as:
Artificial membrane permeability was assessed in the PAMPA assay and the permeability coefficient (Pe) was calculated from the following equation: Pe=C×-ln1-×Ca/Cr where C=Vd ×Va /(Vd+Va)×p×t
Membrane retention was analysed using mass balance between a compound left in the donor and acceptor compartments and calculated using the following equation: MB=Ca×Va+(Cd×Vd)/Cinitial×Vd where

Kinetic solubility assay = type: physicochemical; conditions: PBS buffer, pH 7.4
Protocol: Kinetic solubility assay was performed using Multiscreen HTS Vacuum Manifold (Merck Millipore, Warsaw, Poland). Compounds for this test were prepared as 10 mM stock solutions in DMSO and diluted in a standard PBS buffer (pH = 7.4), to the final concentrations of 0.5 mM. The solutions were applied into a 96-well filter plate and incubated for 90 min at room temperature, while shaking at 40 g and then filtrated. The concentration of each compound was determined on the basis of the prepared calibration curve using the UV–VIS spectrophotometric method. According to the absorption spectra of the compounds the wavelength used for the measurements was 280 nm for both, C-36 and F-81.

[2] = set-up: method as in PMID 19995587; conditions: i.v. ref 35; cited from earlier work

Cc1cc(O)cc(C)c1C[C@H](N)C(=O)N[C@@H]1CCCCNC(=O)C[C@@H](C(N)=O)NC(=O)[C@H](Cc2ccccc2)NC(=O)[C@H](Cc2ccccc2)NC1=O [Peptide C-36, Dmt-c[D-Lys-Phe-Phe-Asp]NH2] (H-[Dmt][dK]FFD-NH2; lactam 2-5; N-terminus assumed)
ED50 (jumping response) (Male CD-1 mice): 57.78 ng | BBB permeability Pe ± SD ([1]; PAMPA, brain polar lipid extract, 200 µM, 4 h, room temperature, pH 7.4): ≤0.58 | Classification (BBB permeation) ([1]; PAMPA-BBB, classified by Pe): Low permeation (Pe < 2.0 – low permeation) | Mean (%) Mass balance ± SD ([1]; PAMPA-BBB, membrane retention): 97.87 ± 1.69% | solubility at 90 min (Kinetic solubility assay; read-out: Solubility Mean): ≥ 500 µM | solubility at 90 min (Kinetic solubility assay; read-out: Solubility Mean (mg/ml)): ≥ 0.36 mg/mL

Cn1c(=O)c2[nH]cnc2n(C)c1=O [Theophylline, theophylline, reference compound]
Mean (%) Mass balance ± SD ([1]; PAMPA, pH 7.4): 98.21 ± 3.65%

Tyr-c[D-Lys-Phe-Phe-Asp]NH2
Ability to reach the brain after i.v. administration [2]: could reach the brain after i.v. administration
